Consider one compound from patent US6808892B1, “Method for identifying inhibitors of IPC synthase” (AstraZeneca AB, priority 1998, dated 2004).

*1 amine or outer side, *2 acyl side, *3 side chain or, on linkers, in order; H or OH if unused. Where a SMILES comes first, the peptide text is derived from it. [ ]: non-standard residue; d: D form. X1 = CC[C@@H](C)[C@@H](O[*:1])C(=O)[*:2]; NMeVal(β-OH) = CN[C@H](C(=O)O)C(C)(C)O; NMeF = CN[C@@H](Cc1ccccc1)C(=O)O; aIle = CC[C@@H](C)[C@H](N)C(=O)O; NMeV = CN[C@H](C(=O)O)C(C)C

This assay relates to strain lcb1::kanMX, pNS149. Briefly: IPC synthase screen: growth inhibition of the engineered yeast strain with or without added phytosphingosine. In kind it is cell-based, S. cerevisiae. The text has this: Therefore in a first aspect of the present invention we provide a screening assay for identifying a selective IPC synthase inhibitor which assay comprises contacting a test compound with engineered cells whose capability to synthesize sphingolipids depends on the addition of exogenous phytosphingosine and which are capable of sustained growth via compensatory phospholipids, adding phytosphingosine, and determining IPC synthase inhibition by the test compound by reference to any cell growth inhibition.
The utility of the lcb1::kanMX pNS149 strain to identify inhibitors of IPC synthase was evaluated using aureobasidinA as a test compound. The lcb1::kanMX pNS149 strain is a further independent aspect of the invention.
Inhibition of growth by aureobasidinA in strain lcb1::kanMX, pNS149 with added phytosphingosine.
Inhibition of growth by aureobasidinA in strain lcb1::kanMX, pNS149 without added phytosphingosine.

As to `CC[C@@H](C)[C@@H]1NC(=O)[C@@H]2CCCN2C(=O)[C@H](Cc2ccccc2)N(C)C(=O)[C@H](Cc2ccccc2)NC(=O)[C@H](C(C)C)N(C)C(=O)[C@@H]([C@H](C)CC)OC(=O)[C@H](C(C)(C)O)N(C)C(=O)[C@H](CC(C)C)NC(=O)[C@H](C(C)C)N(C)C1=O` [aureobasidinA] (cyclo(F[NMeF]P[aIle][NMeV]L[NMeVal(β-OH)][X1][NMeV])), the Inhibition of growth result (pNS149, with added phytosphingosine (FIG. 1a)) was “very pronounced” and the Inhibition of growth result (pNS149, without added phytosphingosine (FIG. 1b)) is recorded as “absent”.
